In ChEMBL document CHEMBL5696442, “Discovery of type II inhibitors of TGFβ-activated kinase 1 (TAK1) and mitogen-activated protein kinase kinase kinase kinase 2 (MAP4K2)” (J Med Chem, 2015):
Active and inactive are the calls of the source. The calls are words filed in the database; no cut-off is given here.

Assays:
[1] = biological target: MAP/microtubule affinity-regulating kinase 3 (Homo sapiens) (UniProt P27448); experiment: Inhibition of MARK3 (unknown origin) at 10 uM by Ambit Kinomescan binding assay
[2] = biological target: cAMP-dependent protein kinase catalytic subunit beta (Homo sapiens) (UniProt P22694); experiment: Inhibition of PKAC beta (unknown origin) at 10 uM by Ambit Kinomescan binding assay relative to control
[3] = biological target: T1, Serine/threonine-protein kinase Chk1 (Homo sapiens) (UniProt O14757); experiment: Inhibition of CHK1 Lys2 labeling site harbouring DIKPENLLLDERDNLK in human A-375 cells at 0.5 uM by KiNativ Profiling analysis relative to control; type: cell-based
T1 sequence (whole entry): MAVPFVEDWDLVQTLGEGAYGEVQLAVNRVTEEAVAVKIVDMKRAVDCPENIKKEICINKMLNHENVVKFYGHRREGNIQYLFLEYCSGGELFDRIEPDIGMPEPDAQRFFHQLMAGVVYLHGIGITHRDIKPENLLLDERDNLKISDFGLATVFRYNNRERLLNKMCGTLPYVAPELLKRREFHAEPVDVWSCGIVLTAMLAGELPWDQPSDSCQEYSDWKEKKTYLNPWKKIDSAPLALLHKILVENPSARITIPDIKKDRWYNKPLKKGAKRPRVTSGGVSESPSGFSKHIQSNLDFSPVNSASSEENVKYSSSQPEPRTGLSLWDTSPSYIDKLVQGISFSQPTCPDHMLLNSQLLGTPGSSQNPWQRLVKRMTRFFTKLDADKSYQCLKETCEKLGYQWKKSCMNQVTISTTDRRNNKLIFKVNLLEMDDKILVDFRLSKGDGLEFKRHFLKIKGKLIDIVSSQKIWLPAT

[4] = biological target: Serine/threonine-protein kinase A-Raf (Homo sapiens) (UniProt P10398); experiment: Inhibition of ARAF Lys2 labeling site in human A-375 cells at 0.05 uM by KiNativ Profiling analysis relative to control; type: cell-based
[5] = biological target: Proto-oncogene tyrosine-protein kinase receptor Ret (Homo sapiens) (UniProt P07949); experiment: Inhibition of RET (unknown origin) at 10 uM by Ambit Kinomescan binding assay relative to control; values are per cent of control
[6] = biological target: Serine/threonine-protein kinase mTOR (Homo sapiens) (UniProt P42345); experiment: Inhibition of MTOR (unknown origin) at 1 uM by Ambit Kinomescan binding assay relative to control
[7] = biological target: Cyclin-dependent kinase 2 (Homo sapiens) (UniProt P24941); experiment: Inhibition of CDK2 Lys2 labeling site in human A-375 cells at 5 uM by KiNativ Profiling analysis relative to control; type: cell-based
[8] = biological target: Phosphatidylinositol 4,5-bisphosphate 3-kinase catalytic subunit alpha isoform (Homo sapiens) (UniProt P42336); experiment: Inhibition of PIK3CA ATP labeling site in human A-375 cells at 5 uM by KiNativ Profiling analysis relative to control; type: cell-based
[9] = biological target: DNA-PK/Ku70/Ku85 (Homo sapiens) (UniProt P78527+P12956+P13010); experiment: Inhibition of DNAPK ATP labeling site harbouring GHDEREHPFLVKGGEDLR in human A-375 cells at 0.05 uM by KiNativ Profiling analysis relative to control; type: cell-based
[10] = biological target: Serine/threonine-protein kinase 32C (Homo sapiens) (UniProt Q86UX6); experiment: Inhibition of YANK3 Lys2 labeling site in human A-375 cells at 0.05 uM by KiNativ Profiling analysis relative to control; type: cell-based
[11] = biological target: T2, Serine/threonine-protein kinase Nek1 (Homo sapiens) (UniProt Q96PY6); experiment: Inhibition of NEK1 (unknown origin) at 1 uM by Ambit Kinomescan binding assay relative to control; values are per cent of control
T2 sequence (whole entry): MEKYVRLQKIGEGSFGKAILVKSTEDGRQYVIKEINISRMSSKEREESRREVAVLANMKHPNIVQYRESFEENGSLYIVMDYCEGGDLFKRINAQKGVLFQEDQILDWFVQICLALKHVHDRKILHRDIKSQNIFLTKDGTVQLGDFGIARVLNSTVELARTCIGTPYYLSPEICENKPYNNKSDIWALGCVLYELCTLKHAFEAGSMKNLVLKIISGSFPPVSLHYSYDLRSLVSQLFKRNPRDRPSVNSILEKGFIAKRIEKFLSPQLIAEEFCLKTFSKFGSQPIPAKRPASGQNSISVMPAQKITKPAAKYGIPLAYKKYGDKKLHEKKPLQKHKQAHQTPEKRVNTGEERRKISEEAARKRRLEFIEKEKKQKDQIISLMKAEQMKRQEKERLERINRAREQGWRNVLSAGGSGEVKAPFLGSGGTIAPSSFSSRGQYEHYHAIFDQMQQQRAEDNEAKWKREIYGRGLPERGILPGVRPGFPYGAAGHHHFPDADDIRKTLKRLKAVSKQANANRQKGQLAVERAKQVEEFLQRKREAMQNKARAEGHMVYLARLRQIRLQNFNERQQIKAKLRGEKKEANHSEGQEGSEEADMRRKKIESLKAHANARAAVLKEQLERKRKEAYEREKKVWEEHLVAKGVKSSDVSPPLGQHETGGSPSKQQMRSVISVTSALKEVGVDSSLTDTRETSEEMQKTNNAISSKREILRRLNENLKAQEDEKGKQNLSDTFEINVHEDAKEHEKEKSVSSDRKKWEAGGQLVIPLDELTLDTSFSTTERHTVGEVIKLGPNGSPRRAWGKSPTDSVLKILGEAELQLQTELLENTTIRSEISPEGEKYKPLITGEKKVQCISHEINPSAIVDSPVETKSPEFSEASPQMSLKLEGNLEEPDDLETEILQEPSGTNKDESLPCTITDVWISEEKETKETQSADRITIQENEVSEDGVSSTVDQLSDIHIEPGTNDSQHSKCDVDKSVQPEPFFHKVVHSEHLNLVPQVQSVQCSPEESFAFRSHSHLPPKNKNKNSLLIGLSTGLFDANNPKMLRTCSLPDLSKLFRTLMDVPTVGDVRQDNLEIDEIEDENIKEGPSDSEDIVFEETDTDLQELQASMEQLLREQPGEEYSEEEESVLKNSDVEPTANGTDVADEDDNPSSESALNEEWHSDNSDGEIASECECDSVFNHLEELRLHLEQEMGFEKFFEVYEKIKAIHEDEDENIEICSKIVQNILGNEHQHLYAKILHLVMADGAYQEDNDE

Sequence of MAP/microtubule affinity-regulating kinase 3 (Homo sapiens) (P27448 whole entry, looked up): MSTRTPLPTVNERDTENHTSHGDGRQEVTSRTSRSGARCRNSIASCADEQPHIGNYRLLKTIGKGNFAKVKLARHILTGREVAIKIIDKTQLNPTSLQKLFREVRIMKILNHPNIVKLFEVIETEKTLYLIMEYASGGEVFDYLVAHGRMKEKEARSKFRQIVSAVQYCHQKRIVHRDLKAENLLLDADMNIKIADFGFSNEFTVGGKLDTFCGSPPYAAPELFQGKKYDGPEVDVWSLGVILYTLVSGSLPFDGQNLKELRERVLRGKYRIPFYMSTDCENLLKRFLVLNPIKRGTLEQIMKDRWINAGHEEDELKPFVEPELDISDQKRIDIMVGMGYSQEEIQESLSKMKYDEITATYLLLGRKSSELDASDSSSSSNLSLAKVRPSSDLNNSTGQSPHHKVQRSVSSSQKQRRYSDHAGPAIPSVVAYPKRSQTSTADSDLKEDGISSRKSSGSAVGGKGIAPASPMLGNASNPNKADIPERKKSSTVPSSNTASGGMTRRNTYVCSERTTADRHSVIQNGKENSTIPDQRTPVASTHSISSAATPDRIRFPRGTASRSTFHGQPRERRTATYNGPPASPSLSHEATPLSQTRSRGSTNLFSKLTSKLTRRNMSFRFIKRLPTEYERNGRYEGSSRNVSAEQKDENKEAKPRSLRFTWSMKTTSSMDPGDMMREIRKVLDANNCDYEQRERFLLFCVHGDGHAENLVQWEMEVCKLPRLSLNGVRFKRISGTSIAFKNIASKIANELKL
Sequence of Proto-oncogene tyrosine-protein kinase receptor Ret (Homo sapiens) (P07949 whole entry): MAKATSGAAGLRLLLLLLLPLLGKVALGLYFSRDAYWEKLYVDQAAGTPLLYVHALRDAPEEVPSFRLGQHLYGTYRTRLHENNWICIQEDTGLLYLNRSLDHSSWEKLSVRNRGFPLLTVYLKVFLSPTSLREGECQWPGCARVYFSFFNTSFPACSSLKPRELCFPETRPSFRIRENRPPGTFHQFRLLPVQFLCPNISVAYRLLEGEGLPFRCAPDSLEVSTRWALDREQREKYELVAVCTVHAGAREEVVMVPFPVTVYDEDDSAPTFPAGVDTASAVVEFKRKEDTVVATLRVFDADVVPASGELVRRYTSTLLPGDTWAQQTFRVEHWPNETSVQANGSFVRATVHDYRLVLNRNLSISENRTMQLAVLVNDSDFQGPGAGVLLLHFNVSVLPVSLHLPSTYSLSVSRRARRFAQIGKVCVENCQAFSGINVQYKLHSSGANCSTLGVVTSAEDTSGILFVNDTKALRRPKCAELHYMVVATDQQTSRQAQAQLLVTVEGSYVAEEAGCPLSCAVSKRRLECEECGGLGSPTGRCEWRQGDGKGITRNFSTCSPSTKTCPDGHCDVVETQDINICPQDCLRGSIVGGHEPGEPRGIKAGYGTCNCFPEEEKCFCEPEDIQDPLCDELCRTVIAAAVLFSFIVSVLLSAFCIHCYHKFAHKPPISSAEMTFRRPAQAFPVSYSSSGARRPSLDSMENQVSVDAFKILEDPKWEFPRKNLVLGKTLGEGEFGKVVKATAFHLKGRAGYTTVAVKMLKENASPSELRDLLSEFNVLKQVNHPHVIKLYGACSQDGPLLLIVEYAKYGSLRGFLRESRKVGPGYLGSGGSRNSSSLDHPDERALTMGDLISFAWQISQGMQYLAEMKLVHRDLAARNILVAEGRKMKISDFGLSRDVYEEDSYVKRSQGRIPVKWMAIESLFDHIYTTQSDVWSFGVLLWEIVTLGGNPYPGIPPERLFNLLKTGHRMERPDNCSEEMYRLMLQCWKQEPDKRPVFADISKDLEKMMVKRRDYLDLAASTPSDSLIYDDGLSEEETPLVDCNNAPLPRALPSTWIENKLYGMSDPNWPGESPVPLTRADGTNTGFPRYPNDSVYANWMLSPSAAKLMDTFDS
Sequence of Serine/threonine-protein kinase 32C (Homo sapiens) (Q86UX6 whole entry): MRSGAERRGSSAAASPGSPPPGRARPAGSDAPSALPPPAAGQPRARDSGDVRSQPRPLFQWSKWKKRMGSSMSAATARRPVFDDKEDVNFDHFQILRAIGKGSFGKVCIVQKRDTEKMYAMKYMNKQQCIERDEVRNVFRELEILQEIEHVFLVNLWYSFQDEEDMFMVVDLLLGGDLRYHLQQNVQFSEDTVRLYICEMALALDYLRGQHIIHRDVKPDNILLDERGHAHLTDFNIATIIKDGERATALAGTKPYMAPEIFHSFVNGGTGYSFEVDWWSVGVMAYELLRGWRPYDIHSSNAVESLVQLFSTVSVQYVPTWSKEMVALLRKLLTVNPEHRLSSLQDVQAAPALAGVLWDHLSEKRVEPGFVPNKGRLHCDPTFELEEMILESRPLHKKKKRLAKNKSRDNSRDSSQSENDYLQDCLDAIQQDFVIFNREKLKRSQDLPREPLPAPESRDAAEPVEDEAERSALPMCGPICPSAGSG
Sequence of Serine/threonine-protein kinase A-Raf (Homo sapiens) (P10398 whole entry): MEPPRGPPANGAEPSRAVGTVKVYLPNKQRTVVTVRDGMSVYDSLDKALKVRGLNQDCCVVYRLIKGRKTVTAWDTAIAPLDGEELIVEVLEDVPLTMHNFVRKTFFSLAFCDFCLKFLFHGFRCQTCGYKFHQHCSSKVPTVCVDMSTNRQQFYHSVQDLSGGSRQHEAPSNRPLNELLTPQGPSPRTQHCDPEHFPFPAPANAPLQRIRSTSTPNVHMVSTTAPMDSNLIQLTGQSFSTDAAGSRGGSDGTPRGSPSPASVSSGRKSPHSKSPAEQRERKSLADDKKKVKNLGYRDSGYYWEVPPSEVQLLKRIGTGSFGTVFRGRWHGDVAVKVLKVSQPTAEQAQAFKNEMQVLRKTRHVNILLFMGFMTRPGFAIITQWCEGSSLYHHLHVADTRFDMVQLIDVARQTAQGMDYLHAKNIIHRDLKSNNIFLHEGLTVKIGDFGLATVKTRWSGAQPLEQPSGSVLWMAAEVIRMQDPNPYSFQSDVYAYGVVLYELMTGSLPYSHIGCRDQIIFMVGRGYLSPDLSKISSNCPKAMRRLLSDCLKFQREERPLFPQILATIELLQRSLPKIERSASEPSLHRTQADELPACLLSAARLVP
Sequence of Phosphatidylinositol 4,5-bisphosphate 3-kinase catalytic subunit alpha isoform (Homo sapiens) (P42336 whole entry, canonical isoform): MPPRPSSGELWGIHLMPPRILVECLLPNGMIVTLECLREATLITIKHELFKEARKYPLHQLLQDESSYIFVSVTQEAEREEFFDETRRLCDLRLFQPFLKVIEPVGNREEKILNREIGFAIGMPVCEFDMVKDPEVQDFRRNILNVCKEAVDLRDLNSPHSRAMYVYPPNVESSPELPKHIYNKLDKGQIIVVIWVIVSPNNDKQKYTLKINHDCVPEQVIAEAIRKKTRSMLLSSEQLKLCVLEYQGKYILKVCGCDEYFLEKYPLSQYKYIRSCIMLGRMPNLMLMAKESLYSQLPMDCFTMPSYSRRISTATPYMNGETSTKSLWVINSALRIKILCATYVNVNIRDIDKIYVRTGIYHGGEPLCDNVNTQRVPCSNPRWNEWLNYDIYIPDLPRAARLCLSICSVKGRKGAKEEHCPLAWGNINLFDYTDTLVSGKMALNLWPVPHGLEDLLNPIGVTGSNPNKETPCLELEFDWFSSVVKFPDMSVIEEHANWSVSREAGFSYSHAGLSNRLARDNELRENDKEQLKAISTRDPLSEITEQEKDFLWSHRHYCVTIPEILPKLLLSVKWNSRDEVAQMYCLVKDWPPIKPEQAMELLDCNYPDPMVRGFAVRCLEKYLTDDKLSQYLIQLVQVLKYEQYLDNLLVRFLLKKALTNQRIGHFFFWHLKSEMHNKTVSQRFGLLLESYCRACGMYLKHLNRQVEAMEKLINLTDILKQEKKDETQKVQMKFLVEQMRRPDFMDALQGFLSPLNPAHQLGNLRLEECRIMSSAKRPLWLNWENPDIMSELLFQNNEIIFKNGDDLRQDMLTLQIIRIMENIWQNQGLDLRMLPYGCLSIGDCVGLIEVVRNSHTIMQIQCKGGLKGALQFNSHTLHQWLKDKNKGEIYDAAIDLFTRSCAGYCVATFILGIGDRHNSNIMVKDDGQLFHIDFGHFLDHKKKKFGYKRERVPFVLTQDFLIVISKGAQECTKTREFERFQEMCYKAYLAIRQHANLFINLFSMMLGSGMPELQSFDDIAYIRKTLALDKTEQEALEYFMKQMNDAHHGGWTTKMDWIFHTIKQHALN

Structure (SMILES) | inhibition [1] | inhibition [2] [%] | inhibition [3] [%] | inhibition [4] [%] | residual activity [5] [%] | inhibition [6] [%] | inhibition [7] [%] | inhibition [8] [%] | inhibition [9] [%] | inhibition [10] [%] | residual activity [11] [%]
CCN1CCN(Cc2ccc(NC(=O)c3ccc(C)c(Oc4ccnc5[nH]ccc45)c3)cc2C(F)(F)F)CC1 | inactive | 14 | 41.1 | 39.3 | 0 | – | – | – | – | – | –
CCN1CCN(Cc2ccc(NC(=O)c3ccc(C)c(/C=C/c4cnc5[nH]ccc5c4OC)c3)cc2C(F)(F)F)CC1 | – | – | – | – | – | 100 | 3.4 | 56.9 | 21.3 | -4.2 | 83
